Measurements from US8952024B2, “Herbicidal pyrimidone derivatives” (E I du Pont de Nemours and Company, priority 2009, dated 2015).

Assays:
Assay type in all cases: in vivo
[1] = test system: winter barley (Hordeum vulgare); assay: Test B postemergence plant response
In short: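 Plants grown in peat/vermiculite medium were sprayed postemergence at 2–18 cm height (1- to 4-leaf stage). After 13–15 days in the greenhouse, response was rated visually against untreated controls on a 0–100 scale (0 no effect, 100 complete control).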

[2] = test system: pigweed (Amaranthus retroflexus); assay: Test A pre-/postemergence plant response
In short: (§1)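 Both pre- and postemergence treatments are applied simultaneously, using chemicals formulated in a non-phytotoxic solvent mixture with surfactant. Postemergence plants are 2–10 cm high with one to two leaves. After approximately ten days in a greenhouse, injury is scored visually from 0 (none) to 100 (complete control) relative to untreated plants.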

[3] = test system: barnyardgrass (Echinochloa crus-galli); assay: Test A pre-/postemergence plant response
In short: as §1

corn (Zea mays) = assay: Test A pre-/postemergence plant response
In short: as §1

[4] = test system: velvetleaf (Abutilon theophrasti); assay: Test A pre-/postemergence plant response
In short: as §1

[5] = test system: giant foxtail (Setaria faberii); assay: Test A pre-/postemergence plant response
In short: as §1

[6] = test system: morningglory (Ipomoea spp.); assay: Test A pre-/postemergence plant response
In short: as §1

[7] = test system: wheat (Triticum aestivum); assay: Test A pre-/postemergence plant response
In short: as §1

[8] = test system: large crabgrass (Digitaria sanguinalis); assay: Test A pre-/postemergence plant response
In short: as §1

[9] = test system: barnyardgrass (Echinochloa crus-galli); assay: Test B flooded paddy test; details: for Plant response rating, Flood, Barnyardgrass: 250 g ai/ha, flooded paddy test, visual rating on 0 to 100 scale (0 no effect, 100 complete control) after 13 to 15 days; for Plant response rating, Barnyardgrass: Flood (flooded paddy test), 13 to 15 days
In short: (§2)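 Ratings are visual, 0–100 (100 = complete control), taken versus untreated controls 13 to 15 days after treatment in the greenhouse. Compound went straight into paddy water held 3 cm above soil, applied to 2-leaf-stage plants of four species.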

[10] = test system: ducksalad (Heteranthera limosa); assay: Test B flooded paddy test; details: for Plant response rating, Flood, Ducksalad: 250 g ai/ha, flooded paddy test, visual rating on 0 to 100 scale (0 no effect, 100 complete control) after 13 to 15 days; for Plant response rating, Ducksalad: Flood (flooded paddy test), 13 to 15 days
In short: as §2

[11] = test system: umbrella sedge (Cyperus difformis); assay: Test B flooded paddy test; details: for Plant response rating, Flood, Sedge, Umbrella: 250 g ai/ha, flooded paddy test, visual rating on 0 to 100 scale (0 no effect, 100 complete control) after 13 to 15 days; for Plant response rating, Sedge, Umbrella: Flood (flooded paddy test), 13 to 15 days
In short: as §2

rice (Oryza sativa) = assay: Test B flooded paddy test; details: for Plant response rating, Flood, Rice: 250 g ai/ha, flooded paddy test, visual rating on 0 to 100 scale (0 no effect, 100 complete control) after 13 to 15 days; for Plant response rating, Rice: Flood (flooded paddy test), 13 to 15 days
In short: as §2

[12] = Postemergence, 125 g ai/ha, 0 to 100 scale where 0 is no effect and 100 is complete control
[13] = Postemergence, 500 g ai/ha, 0 to 100 scale, 0 = no effect, 100 = complete control, approx. ten days
[14] = Preemergence, 125 g ai/ha, 0 to 100 scale, 0 = no effect, 100 = complete control
[15] = Preemergence, 500 g ai/ha, visual injury, 0 to 100 scale (0 no effect, 100 complete control), approx. ten days
[16] = 62 g ai/ha, scale of 0 to 100 where 0 is no effect and 100 is complete control
[17] = Postemergence, 500 g ai/ha, visual injury, 0 to 100 scale (0 no effect, 100 complete control), approx. ten days
[18] = Preemergence, 500 g ai/ha, 0 to 100 scale, 0 = no effect, 100 = complete control
[19] = 125 g ai/ha, scale 0 to 100, 0 is no effect, 100 is complete control
[20] = Flood, 31 g ai/ha, scale 0 to 100 (0 no effect, 100 complete control)

CCCn1c(-c2cccs2)ncc(C(=O)C2=C(O)CCCC2=O)c1=O [Compound 77]
Plant response rating, Barley ([1]; 31 g ai/ha, postemergence, scale 0 to 100, 0 is no effect, 100 is complete control): 0 | Barley plant response rating (0 to 100 scale) ([1]; 62 g ai/ha, postemergence, 0 is no effect, 100 is complete control, 13 to 15 days): 0 | Plant response rating, Barley ([1]; Postemergence, 125 g ai/ha, visual rating after 13 to 15 days, scale 0 (no effect) to 100 (complete control)): 0 | Plant response rating, Barley ([1]; Postemergence, 250 g ai/ha, scale 0 to 100 (0 no effect, 100 complete control)): 0 | Plant response rating, Pigweed [2, 12]: 100 | Plant response rating, Pigweed [2, 13]: 100 | Plant response rating, Pigweed [2, 14]: 80 | Plant response rating, Pigweed [2, 15]: 90 | Plant response rating, Barnyardgrass [3, 12]: 80 | Plant response rating, Barnyardgrass [3, 13]: 90 | Plant response rating, Barnyardgrass [3, 14]: 20 | Plant response rating, Barnyardgrass [3, 15]: 50 | Plant response rating, Corn (corn (Zea mays); [12]): 0 | Plant response rating, Corn (corn (Zea mays); [13]): 20 | Plant response rating, Corn (corn (Zea mays); [14]): 0 | Plant response rating, Corn (corn (Zea mays); [15]): 0 | Plant response rating, Velvetleaf [4, 12]: 100 | Plant response rating, Velvetleaf [4, 13]: 100 | Plant response rating, Velvetleaf [4, 14]: 70 | Plant response rating, Velvetleaf [4, 15]: 100 | Plant response rating, Foxtail, Giant [5, 12]: 50 | Plant response rating, Foxtail, Giant [5, 13]: 70 | Plant response rating, Foxtail, Giant [5, 14]: 0 | Plant response rating, Foxtail, Giant [5, 15]: 20 | Plant response rating, Morningglory [6, 12]: 90 | Plant response rating, Morningglory [6, 13]: 100 | Plant response rating, Morningglory [6, 15]: 70 | Plant response rating, Wheat [7, 12]: 0 | Plant response rating, Wheat [7, 13]: 0 | Plant response rating, Wheat [7, 14]: 0 | Plant response rating, Wheat [7, 15]: 0 | Plant response rating, Crabgrass, Large [8, 12]: 60 | Plant response rating, Crabgrass, Large [8, 13]: 80 | Plant response rating, Crabgrass, Large [8, 14]: 50 | Plant response rating, Crabgrass, Large [8, 15]: 90 | Plant response rating, Flood, Barnyardgrass [9]: 65 | Plant response rating, Barnyardgrass [9, 16]: 30 | Plant response rating, Flood, Ducksalad [10]: 40 | Plant response rating, Ducksalad [10, 16]: 30 | Plant response rating, Flood, Sedge, Umbrella [11]: 40 | Plant response rating, Sedge, Umbrella [11, 16]: 40 | Plant response rating, Flood, Rice (rice (Oryza sativa)): 15 | Plant response rating, Rice (rice (Oryza sativa); [16]): 0

O=C1CCCC(O)=C1C(=O)c1cnc(-c2ccc(F)cc2)n(C2CCCCC2)c1=O [Compound 197]
Plant response rating, Barley ([1]; Postemergence, 31 g ai/ha, 0 to 100 scale (0 no effect, 100 complete control)): 0 | Plant response rating, Barley ([1]; Postemergence, 62 g ai/ha, scale 0 to 100 (0 no effect, 100 complete control)): 5 | Plant response rating, Barley ([1]; Postemergence, 125 g ai/ha, scale 0 to 100 (0 no effect, 100 complete control)): 10 | Plant response rating, Barley ([1]; Postemergence, 250 g ai/ha, scale 0 to 100 (0 no effect, 100 complete control), 13 to 15 days): 40 | Plant response rating, Pigweed [2, 12]: 100 | Pigweed plant response rating [2, 17]: 100 | Plant response rating, Pigweed [2, 14]: 20 | Plant response rating, Pigweed [2, 18]: 100 | Plant response rating, Barnyardgrass [3, 12]: 80 | Barnyardgrass plant response rating [3, 17]: 100 | Plant response rating, Barnyardgrass [3, 14]: 0 | Plant response rating, Barnyardgrass [3, 18]: 40 | Plant response rating, Corn (corn (Zea mays); [12]): 20 | Corn plant response rating (corn (Zea mays); [17]): 50 | Plant response rating, Corn (corn (Zea mays); [14]): 0 | Plant response rating, Corn (corn (Zea mays); [18]): 30 | Plant response rating, Velvetleaf [4, 12]: 100 | Velvetleaf plant response rating [4, 17]: 100 | Plant response rating, Velvetleaf [4, 14]: 40 | Plant response rating, Velvetleaf [4, 18]: 90 | Plant response rating, Foxtail, Giant [5, 12]: 80 | Foxtail, Giant plant response rating [5, 17]: 100 | Plant response rating, Foxtail, Giant [5, 14]: 0 | Plant response rating, Foxtail, Giant [5, 18]: 50 | Plant response rating, Morningglory [6, 12]: 100 | Morningglory plant response rating [6, 17]: 100 | Plant response rating, Morningglory [6, 14]: 0 | Plant response rating, Morningglory [6, 18]: 60 | Plant response rating, Wheat [7, 12]: 0 | Wheat plant response rating [7, 17]: 0 | Plant response rating, Wheat [7, 14]: 0 | Plant response rating, Wheat [7, 18]: 20 | Plant response rating, Crabgrass, Large [8, 12]: 70 | Crabgrass, Large plant response rating [8, 17]: 100 | Plant response rating, Crabgrass, Large [8, 14]: 0 | Plant response rating, Crabgrass, Large [8, 18]: 60 | Plant response rating, Flood, Barnyardgrass [9]: 30 | Plant response rating, Barnyardgrass [9, 16]: 0 | Plant response rating, Barnyardgrass [9, 19]: 20 | Barnyardgrass plant response rating [9, 20]: 0 | Plant response rating, Flood, Ducksalad [10]: 85 | Plant response rating, Ducksalad [10, 16]: 65 | Plant response rating, Ducksalad [10, 19]: 80 | Ducksalad plant response rating [10, 20]: 65 | Plant response rating, Flood, Sedge, Umbrella [11]: 85 | Plant response rating, Sedge, Umbrella [11, 16]: 70 | Plant response rating, Sedge, Umbrella [11, 19]: 75 | Sedge, Umbrella plant response rating [11, 20]: 65 | Plant response rating, Flood, Rice (rice (Oryza sativa)): 45 | Plant response rating, Rice (rice (Oryza sativa); [16]): 0 | Plant response rating, Rice (rice (Oryza sativa); [19]): 30 | Rice plant response rating (rice (Oryza sativa); [20]): 0
